Experimental data: US4774259A, “Phenylalanine derivatives and uses thereof” (Ajinomoto Co., Inc., priority 1985, dated 1988)

Key:
[1] = Absorption promoting test of insulin, oral, mice (Example 3): blood glucose value; type: in vivo, female ICR-CDI mice; conditions: for decrease in the blood glucose value (in words): oral with insulin, compared with a control group
Method: A test for the promotion of the absorption of insulin was carried out upon the above-described absorption promoters and upon two known absorption promoting agents. Thus, insulin in a prescribed dose (23.3 unit/mg) and the absorption promoter, as given in the Table below, were dissolved or suspended in a 0.05M phosphate buffer. Then groups of five female ICR-CDI mice, 6 to 7 weeks old, which had not been fed for 18 hours, were orally administered with the predetermined buffer solution (0.5 ml). A predetermined time later, the blood glucose value of each group of mice was determined.

male ICR mice = test: Toxicity test, oral LD50, mice (Example 4); type: in vivo; conditions: compared with known absorption promoting agents
Method: Predetermined amounts of the absorption promoters listed in the Table were each suspended in 0.5% CMC sodium salt solution. Groups of ten male ICR mice, 4 weeks old, were orally administered with the suspension. Two weeks thereafter, the LD50 values were determined.

[2] = Absorption promoting test of insulin, oral, mice (Example 7): blood glucose and immunoreactive insulin; type: in vivo, female ICR-CDl mice; conditions: for Decrease in Blood Glucose / Degree of increase of Blood Insulin: insulin 0.5 unit/10 g, promoter 3 mg/10 g, oral, compared with phosphate buffer control; for effect on decreasing the blood glucose value and increasing the blood insulin level (in words): oral with insulin
Method: A test for the absorption of insulin was carried out with absorption promoters of the present invention. Thus, insulin (0.5 unit/10 g weight) and the absorption promoter (3 mg/10 g weight) were suspended in a 0.05M phosphate buffer. Then the group of five female ICR-CDl mice, 5 to 7 weeks old, which were fasted for 18 hours, were orally administered with the prepared suspension.
The blood glucose value and the immunoreactive insulin level of each group of mice were determined at the fixed time.
The percent decrease in blood glucose and the degree of increase of blood insulin as compared with a phosphate buffer control group were shown in Table 2.

| Structure (SMILES) | decrease in the blood glucose value (in words) [1] | LD50 value (in words) (male ICR mice) | Decrease in Blood Glucose ([2]; 15 minutes) [%] | Degree of increase of Blood Insulin ([2]; 15 minutes) | Decrease in Blood Glucose ([2]; 30 minutes) [%] | Degree of increase of Blood Insulin ([2]; 30 minutes) | Decrease in Blood Glucose ([2]; 60 minutes) [%] | Degree of increase of Blood Insulin ([2]; 60 minutes) | effect on decreasing the blood glucose value and increasing the blood insulin level (in words) [2] | Blood Glucose ([1]; insulin 50 unit/kg, absorption promoter 150 mg/kg, oral, 30 minutes, control 82.4 ± 8.1) [mg/dL] |
| --- | --- | --- | --- | --- | --- | --- | --- | --- | --- | --- |
| Cc1ccc(C=C(F)C(=O)N[C@@H](Cc2ccccc2)C(=O)O)cc1 [N-(α-fluoro-4-methylcinnamoyl)-L-phenylalanine] | excellent effect in decreasing the blood glucose value | excellent LD50 value | – | – | – | – | – | – | – | – |
| Cc1ccc(C(Cl)=CC(=O)N[C@H](Cc2ccccc2)C(=O)O)cc1 [N-(β-chloro-4-methylcinnamoyl)-D-phenylalanine] | – | – | 35.7 | 2.1 | 47.8 | 3.3 | 42.8 | 1.0 | excellent effect on decreasing the blood glucose value and increasing the blood insulin level | – |
| Cc1ccc(C=CC(=O)N[C@@H](Cc2ccccc2)C(=O)O)cc1 [N-(4-methylcinnamoyl)-L-phenylalanine] | small | – | – | – | – | – | – | – | – | 78.0 ± 7.8 |
| Cc1ccc(C(Cl)=CC(=O)N[C@@H](Cc2ccccc2)C(=O)O)cc1 [N-(β-chloro-4-methylcinnamoyl)-L-phenylalanine] | – | – | 42.1 | 10.5 | 21.6 | 2.0 | 12.1 | 2.1 | excellent effect on decreasing the blood glucose value and increasing the blood insulin level | – |
| Cc1ccc(C=C(F)C(=O)N[C@H](Cc2ccccc2)C(=O)O)cc1 [N-(α-fluoro-4-methylcinnamoyl)-D-phenylalanine] | excellent effect in decreasing the blood glucose value | excellent LD50 value | – | – | – | – | – | – | – | – |
| O=C(N[C@@H](Cc1ccccc1)C(=O)O)C(F)=Cc1ccccc1 [N-(α-fluorocinnamoyl)-L-phenylalanine] | small | – | – | – | – | – | – | – | – | – |
